# Reference: US4017485A, “7-Methoxycephalosporin derivatives” (Takeda Chemical Industries, Ltd., priority 1973, dated 1977)
# Structures can show the parent of a compound that is named as a salt.
# How the values were obtained:
# [1] = system: Bacillus subtilis PCI 219; assay: Antimicrobial spectrum, minimal inhibitory concentration; assay type: cell-based; settings: PCI219, Tripticase Soy Agar (BBL), pH 6.5, 37° C, read-out: minimal inhibitory concentrations
# Protocol: (§1) Based on the above physical and chemical properties as well as the results of other analyses, the chemical structure of this new antibiotic C-2801-X was determined as follows. [drawing 2] 11. Antimicrobial spectrum: Medium: Tripticase Soy Agar (BBL) (manufactured by Becton Dickenson Co., U.S.A.), pH 6.5, minimal inhibitory concentrations mcg/ml., temperature 37° C
# [2] = system: Escherichia coli (clinical isolate, antibiotic-susceptible strain); assay: as above; assay type: cell-based; settings: Tripticase Soy Agar (BBL), pH 6.5, 37° C, read-out: minimal inhibitory concentrations
# Protocol: as §1
# Escherichia coli NIHJ = assay: as above; assay type: cell-based; settings: Tripticase Soy Agar (BBL), pH 6.5, 37° C, read-out: minimal inhibitory concentrations
# Protocol: as §1
# [3] = system: Pseudomonas aeruginosa NCTC-10490; assay: as above; assay type: cell-based; settings: NCTC10490, Tripticase Soy Agar (BBL), pH 6.5, 37° C, read-out: minimal inhibitory concentrations
# Protocol: as §1
# [4] = system: Staphylococcus aureus 209 P (chloramphenicol, streptomycin, tetracycline and erythromycin-resistant); assay: as above; assay type: cell-based; settings: pH 6.5, read-out: minimal inhibitory concentrations
# Protocol: as §1
# [5] = system: Staphylococcus aureus 209 P; assay: as above; assay type: cell-based; settings: Tripticase Soy Agar (BBL), pH 6.5, 37° C, read-out: minimal inhibitory concentrations
# Protocol: as §1
# [6] = system: Straphylococcus aureus No.87; assay: as above; assay type: cell-based; settings: Tripticase Soy Agar (BBL), pH 6.5, 37° C, read-out: minimal inhibitory concentrations
# Protocol: as §1
# [7] = system: Aerobacter cloacae IFO-12009; assay: as above; assay type: cell-based; settings: Enterobacter cloacae, IFO12009, Tripticase Soy Agar (BBL), pH 6.5, 37° C, read-out: minimal inhibitory concentrations
# Protocol: as §1
# (§2) (The IFO-numbers given above are the accession numbers at the Institute
# (§3) for Fermentation, Osaka, Japan).
# [8] = system: Alcaligenes faecalis IFO-13111; assay: as above; assay type: cell-based; settings: IFO13111, Tripticase Soy Agar (BBL), pH 6.5, 37° C, read-out: minimal inhibitory concentrations
# Protocol: as §1, §2, §3
# [9] = system: Bacillus pumilus IFO-3813; assay: as above; assay type: cell-based; settings: IFO3813, Tripticase Soy Agar (BBL), pH 6.5, 37° C, read-out: minimal inhibitory concentrations
# Protocol: as §1, §2, §3
# [10] = system: Klebsiella pneumoniae IFO-3512; assay: as above; assay type: cell-based; settings: IFO3512, Tripticase Soy Agar (BBL), pH 6.5, 37° C, read-out: minimal inhibitory concentrations
# Protocol: as §1, §2, §3
# [11] = system: Proteus mirabilis IFO-3849; assay: as above; assay type: cell-based; settings: IFO3849, Tripticase Soy Agar (BBL), pH 6.5, 37° C, read-out: minimal inhibitory concentrations
# Protocol: as §1, §2, §3
# [12] = system: Proteus morganii IFO-3848; assay: as above; assay type: cell-based; settings: Morganella morganii, IFO3848, Tripticase Soy Agar (BBL), pH 6.5, 37° C, read-out: minimal inhibitory concentrations
# Protocol: as §1, §2, §3
# [13] = system: Proteus vulgaris IFO-3988; assay: as above; assay type: cell-based; settings: IFO3988, Tripticase Soy Agar (BBL), pH 6.5, 37° C, read-out: minimal inhibitory concentrations
# Protocol: as §1, §2, §3
# [14] = system: Pseudomonas aeruginosa IFO-3080; assay: as above; assay type: cell-based; settings: IFO3080, Tripticase Soy Agar (BBL), pH 6.5, 37° C, read-out: minimal inhibitory concentrations
# Protocol: as §1, §2, §3
# [15] = system: Salmonella enteritidis IFO-3313; assay: as above; assay type: cell-based; settings: Salmonella enterica, Tripticase Soy Agar (BBL), pH 6.5, 37° C, read-out: minimal inhibitory concentrations
# Protocol: as §1, §2, §3
# [16] = system: Salmonella typhimurium IFO-12529; assay: as above; assay type: cell-based; settings: Salmonella enterica, Tripticase Soy Agar (BBL), pH 6.5, 37° C, read-out: minimal inhibitory concentrations
# Protocol: as §1, §2, §3
# [17] = system: Escherichia coli (clinical isolate*); assay: as above; assay type: cell-based; settings: clinical isolate resistant to tetracycline, streptomycin, kanamycin, lividomycin, aminobenzylpenicillin and sulbenicillin, Tripticase Soy Agar (BBL), pH 6.5, 37° C, read-out: minimal inhibitory concentrations
# Protocol: as §1
# *The strain is resistant to tetracycline, streptomycin, kanamycin,
# lividomycin, aminobenzylpenicillin and sulbenicillin.
# [18] = system: Escherichia coli (clinical isolate**); assay: as above; assay type: cell-based; settings: clinical isolate resistant to sulfonamide, streptomycin and sulbenicillin, Tripticase Soy Agar (BBL), pH 6.5, 37° C, read-out: minimal inhibitory concentrations
# Protocol: as §1
# **The strain is resistant to sulfonamide, streptomycin and sulbenicillin.
# mice = assay: Acute toxicity test in mice; assay type: in vivo; settings: 400 mg. per kilogram of body weight, intravenously
# Protocol: In an acute toxicity test in mice, there occurred no death when 400 mg. of Antibiotic C-2801-X monosodium salt per kilogram of body weight was administered intravenously.
# Solubility = assay type: physicochemical
# acidity-alkalinity = assay type: physicochemical
# [19] = Stability under strongly acidic and under alkaline conditions; assay type: physicochemical
# [20] = system: Staphylococcus aureaus, Bacillus subtilis, Escherichia coli, Proteus vulgaris, Salmonella typhimurium, aerobic bacteria; assay: Inhibition of bacterial growth (summary statement); assay type: cell-based; settings: antibiotic C-2801-X and its salts
compound,measurement,setting,value
COC(=Cc1ccc(O)c(O)c1)C(=O)OCC1=C(C(=O)O)N2C(=O)C(NC(=O)CCCC(N)C(=O)O)(OC)C2SC1 (stereo not shown) [Antibiotic C-2801-X monosodium salt],MIC,[1],12.5 µg/mL
same,MIC,[2],25 µg/mL
same,MIC,Escherichia coli NIHJ,50 µg/mL
same,MIC,[3],> 100 µg/mL
same,MIC,[4],50 µg/mL
same,MIC,[5],50 µg/mL
same,MIC,[6],50 µg/mL
same,MIC,[7],25 µg/mL
same,MIC,[8],12.5 µg/mL
same,MIC,[9],50 µg/mL
same,MIC,[10],6.25 µg/mL
same,MIC,[11],3.13 µg/mL
same,MIC,[12],25 µg/mL
same,MIC,[13],12.5 µg/mL
same,MIC,[14],> 100 µg/mL
same,MIC,[15],6.25 µg/mL
same,MIC,[16],6.25 µg/mL
same,MIC,[17],25 µg/mL
same,MIC,[18],25 µg/mL
same,death in acute toxicity test,mice,no death
same,Solubility,Solubility; in chloroform,Insoluble
same,Solubility,Solubility; in ethanol,Soluble
same,Solubility,Solubility; in ether,Insoluble
same,Solubility,Solubility; in ethyl acetate,Insoluble
same,Solubility,Solubility; in methanol,Soluble
same,Solubility,Solubility; in water,Soluble
same,acidity-alkalinity,acidity-alkalinity,Amphoteric
COC(=Cc1ccc(O)c(O)c1)C(=O)OCC1=C(C(=O)O)N2C(=O)C(NC(=O)CCCC(N)C(=O)O)(OC)C2SC1 (stereo not shown) [Antibiotic C-2801-X],Solubility,Solubility; in water,water-soluble
same,stability,[19],unstable
same,acidity-alkalinity,acidity-alkalinity,amphoteric
same,inhibition of growth of bacteria,[20],inhibit the growth
